Source: ChEMBL document CHEMBL4665835, “Synthesis and pharmacological evaluation of 11-(1,6-dimethyl-1,2,3,6-tetrahydropyridin-4-yl)-5H-dibenzo[b,e][1,4]diazepines with clozapine-like receptor occupancy at dopamine D/D receptor” (Bioorg Med Chem Lett, 2020)

Key:
[1] = molecular target: D(2) dopamine receptor (Homo sapiens, UniProt P14416)
Description: Binding affinity to human dopamine D2 receptor

[2] = molecular target: T1, D(1A) dopamine receptor (Homo sapiens, UniProt P21728); assay: Binding affinity to human dopamine D1 receptor
[3] = Drug metabolism in human hepatocyte microsome fraction assessed as GSH conjugate formation by LC-MS/MS analysis; assay type: ADME; conditions: microsomes
[4] = In vivo receptor occupancy at human dopamine D1 receptor in schizophrenia patient brain at 10 mCi, iv by PET scanning; assay type: functional
[5] = In vivo receptor occupancy at human dopamine D2 receptor in schizophrenia patient brain at 10 mCi, iv by PET scanning; assay type: functional
[6] = In vivo receptor occupancy at dopamine D1 receptor in sc dosed rat brain by measuring free plasma concentration pretreated for 1 hr in presence of raclopride by LC-MS/MS analysis; assay type: functional
[7] = In vivo receptor occupancy at dopamine D1 receptor in sc dosed rat brain by measuring free plasma concentration pretreated for 1 hr in presence of SCH-23390 by LC-MS/MS analysis; assay type: functional
[8] = molecular target: T1, D(1A) dopamine receptor; assay: Potency index, ratio of Clozapine Ki to compound Ki for binding affinity to human dopamine D1 receptor
[9] = molecular target: Voltage-gated inwardly rectifying potassium channel KCNH2 (Homo sapiens, UniProt Q12809); assay: Inhibition of human ERG
Voltage-gated inwardly rectifying potassium channel KCNH2, sequence (Q12809 whole entry): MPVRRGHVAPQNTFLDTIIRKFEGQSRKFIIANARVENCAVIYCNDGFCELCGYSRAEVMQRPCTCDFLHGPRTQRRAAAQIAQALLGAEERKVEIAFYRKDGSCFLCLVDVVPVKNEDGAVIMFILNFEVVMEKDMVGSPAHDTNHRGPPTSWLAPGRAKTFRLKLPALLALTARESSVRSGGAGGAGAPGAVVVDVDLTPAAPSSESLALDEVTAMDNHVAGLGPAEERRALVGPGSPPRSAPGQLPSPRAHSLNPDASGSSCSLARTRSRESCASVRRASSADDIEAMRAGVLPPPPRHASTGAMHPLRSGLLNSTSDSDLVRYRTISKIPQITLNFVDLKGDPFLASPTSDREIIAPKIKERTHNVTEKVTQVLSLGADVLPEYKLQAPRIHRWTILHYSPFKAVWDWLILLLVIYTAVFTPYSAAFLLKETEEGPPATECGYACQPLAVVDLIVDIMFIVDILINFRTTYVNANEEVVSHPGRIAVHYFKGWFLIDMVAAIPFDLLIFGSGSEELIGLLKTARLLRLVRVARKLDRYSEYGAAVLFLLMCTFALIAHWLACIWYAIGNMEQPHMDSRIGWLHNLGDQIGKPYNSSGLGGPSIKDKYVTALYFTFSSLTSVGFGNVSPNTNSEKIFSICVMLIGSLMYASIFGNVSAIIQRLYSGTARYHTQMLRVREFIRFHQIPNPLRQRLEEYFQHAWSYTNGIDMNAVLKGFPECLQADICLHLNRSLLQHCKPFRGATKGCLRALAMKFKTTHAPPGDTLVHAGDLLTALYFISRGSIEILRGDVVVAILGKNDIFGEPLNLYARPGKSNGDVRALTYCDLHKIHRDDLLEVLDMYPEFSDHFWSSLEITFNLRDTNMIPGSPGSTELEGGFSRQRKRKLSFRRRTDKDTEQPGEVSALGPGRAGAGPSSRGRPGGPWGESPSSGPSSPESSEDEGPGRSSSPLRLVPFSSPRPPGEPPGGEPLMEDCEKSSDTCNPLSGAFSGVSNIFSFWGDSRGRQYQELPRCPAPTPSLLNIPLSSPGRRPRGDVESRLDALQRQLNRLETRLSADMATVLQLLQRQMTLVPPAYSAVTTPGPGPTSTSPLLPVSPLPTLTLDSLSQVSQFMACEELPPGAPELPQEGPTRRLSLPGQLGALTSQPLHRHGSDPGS

[10] = molecular target: 5-hydroxytryptamine receptor 2A (Homo sapiens, UniProt P28223); assay: Binding affinity to human 5HT2A receptor
5-hydroxytryptamine receptor 2A, sequence (P28223 whole entry): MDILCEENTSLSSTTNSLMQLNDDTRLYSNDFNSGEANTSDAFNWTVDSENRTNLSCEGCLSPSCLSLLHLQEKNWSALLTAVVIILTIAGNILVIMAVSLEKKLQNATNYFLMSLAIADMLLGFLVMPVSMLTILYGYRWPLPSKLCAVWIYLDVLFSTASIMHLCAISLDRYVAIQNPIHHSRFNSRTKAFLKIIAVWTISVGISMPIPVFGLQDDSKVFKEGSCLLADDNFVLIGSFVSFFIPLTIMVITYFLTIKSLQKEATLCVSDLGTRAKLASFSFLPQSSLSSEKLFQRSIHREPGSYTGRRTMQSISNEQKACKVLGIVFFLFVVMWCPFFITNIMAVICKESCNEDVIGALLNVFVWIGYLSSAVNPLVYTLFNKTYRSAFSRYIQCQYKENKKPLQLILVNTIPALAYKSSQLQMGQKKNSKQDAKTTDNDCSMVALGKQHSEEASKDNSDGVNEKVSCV

D(2) dopamine receptor, sequence (P14416 whole entry): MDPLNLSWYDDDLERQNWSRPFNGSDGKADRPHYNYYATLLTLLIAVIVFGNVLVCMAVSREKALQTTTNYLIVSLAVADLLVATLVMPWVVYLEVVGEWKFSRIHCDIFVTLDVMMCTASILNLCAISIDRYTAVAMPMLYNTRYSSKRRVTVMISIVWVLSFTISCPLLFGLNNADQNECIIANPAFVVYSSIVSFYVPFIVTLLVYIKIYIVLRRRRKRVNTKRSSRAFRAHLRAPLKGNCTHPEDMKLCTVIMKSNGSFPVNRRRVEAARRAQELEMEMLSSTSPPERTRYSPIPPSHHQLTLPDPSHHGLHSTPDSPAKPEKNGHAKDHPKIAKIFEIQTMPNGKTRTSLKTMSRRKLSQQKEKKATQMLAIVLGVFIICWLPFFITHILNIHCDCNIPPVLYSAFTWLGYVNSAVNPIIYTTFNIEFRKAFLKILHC
T1 sequence (P21728 whole entry): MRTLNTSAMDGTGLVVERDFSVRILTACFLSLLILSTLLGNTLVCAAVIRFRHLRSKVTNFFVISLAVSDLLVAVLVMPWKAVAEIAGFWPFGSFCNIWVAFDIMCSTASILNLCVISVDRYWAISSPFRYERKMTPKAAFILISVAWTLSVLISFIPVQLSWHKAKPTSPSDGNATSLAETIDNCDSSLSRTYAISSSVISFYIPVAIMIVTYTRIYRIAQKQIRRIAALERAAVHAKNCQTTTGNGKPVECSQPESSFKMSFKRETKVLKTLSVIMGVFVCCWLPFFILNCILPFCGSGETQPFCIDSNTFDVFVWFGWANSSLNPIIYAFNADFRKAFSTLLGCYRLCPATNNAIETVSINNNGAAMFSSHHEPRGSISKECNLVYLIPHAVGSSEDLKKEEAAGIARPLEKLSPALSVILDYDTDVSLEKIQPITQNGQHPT

Row | Ki [1] [nM] | Ki [2] [nM] | Drug metabolism [3] [µmol/L] | Ratio [8] | Ki [10] [nM] | SMILES | Occ [4] [%] | Occ [5] [%] | Occ50 [6] [nM] | Occ50 [7] [nM] | IC50 [9] [nM]
1 | 1180 | 55 | 0.99 |  |  | CN1CCC(C2=Nc3cc(Cl)ccc3Nc3ccccc32)=CC1(C)C |  |  |  |  | 
2 | > 1400 |  |  |  |  | Cc1ccc2c(c1)N=C(C1=C[C@H](C)N(C)CC1)c1cc(C)ccc1N2 |  |  |  |  | 
3 | 28 | 1.4 | 0.53 | 10 | 0.094 | CCc1ccc2c(c1)C(C1=C[C@H](C)N(C)CC1)=Nc1cc(Cl)ccc1N2 |  |  | 6 | 1 | 1100
4 |  |  | 0 |  |  | CN1CCN([C@@H]2C[C@@H](c3ccccc3)c3ccc(Cl)cc32)CC1(C)C [ZICRONAPINE] |  |  | 6.6 | 23 | 
5 | 819 | 7.9 | 0.85 |  |  | Cc1ccc2c(c1)C(C1=C[C@H](C)N(C)CC1)=Nc1ccccc1N2 |  |  |  |  | 
6 | 1220 | 2.4 |  |  |  | Cc1ccc2c(c1)N=C(C1=C[C@H](C)N(C)CC1)c1cc(OC(F)(F)F)ccc1N2 |  |  |  |  | 
7 | 47 | 3.7 | 0.77 | 10 | 0.091 | CCOc1ccc2c(c1)C(C1=C[C@H](C)N(C)CC1)=Nc1cc(Cl)ccc1N2 |  |  |  |  | 900
8 | 127 | 0.2 | 0.24 |  |  | C[C@H]1C=C(C2=Nc3cc(Cl)ccc3Nc3ccc(F)cc32)CCN1C |  |  |  |  | 1200
9 | 1380 | 380 | 0.21 |  |  | CN1CC=C(C2=Nc3cc(Cl)ccc3Nc3ccccc32)CC1 |  |  |  |  | 
10 | > 1400 |  |  |  |  | Cc1ccc2c(c1)N=C(C1=C[C@H](C)N(C)CC1)c1ccccc1N2 |  |  |  |  | 

The remaining lines, values behind:

Row | SMILES | Ki [1] [nM] | Ki [2] [nM] | Drug metabolism [3] [µmol/L] | Ratio [8] | Ki [10] [nM] | Occ [4] [%] | Occ [5] [%] | Occ50 [6] [nM] | Occ50 [7] [nM] | IC50 [9] [nM]
11 | Cc1nc2n(c(=O)c1CCN1CCC(c3noc4cc(F)ccc34)CC1)CCCC2 [RISPERIDONE] |  |  |  |  |  | 25 | 81 |  |  | 
12 | CN1CCN(C2=Nc3cc(Cl)ccc3Nc3ccccc32)CC1 [CLOZAPINE] |  |  |  |  |  | 55 | 61 | 73.4 | 24.2 | 
13 | C[C@H]1C=C(C2=Nc3ccccc3Nc3ccc(Cl)cc32)CCN1C | 124 | 1.6 | 0.67 |  |  |  |  |  |  | 600
14 | Cc1cc2c(s1)Nc1ccccc1N=C2N1CCN(C)CC1 [OLANZAPINE] |  |  | 0.077 |  |  | 43 | 79 | 480 | 3.8 | 
15 | OCCOCCN1CCN(C2=Nc3ccccc3Sc3ccccc32)CC1 [QUETIAPINE] |  |  |  |  |  | 12 | 30 |  |  | 
16 | COc1ccc2c(c1)C(C1=C[C@H](C)N(C)CC1)=Nc1cc(C)ccc1N2 | > 1400 |  |  |  |  |  |  |  |  | 
17 | Cc1ccc2c(c1)N=C(C1=C[C@H](C)N(C)CC1)c1cc(F)ccc1N2 | 453 | 5.5 | 0.25 |  |  |  |  |  |  | 1600
18 | COc1ccc2c(c1)C(C1=C[C@H](C)N(C)CC1)=Nc1cc(Cl)ccc1N2 | 69 | 2 | 0.89 |  |  |  |  |  |  | 1500
19 | C[C@H]1C=C(C2=Nc3cc(Cl)ccc3Nc3ccc(OC(F)(F)F)cc32)CCN1C | 110 | 2 | 0.58 |  | 0.14 |  |  |  |  | 1900
20 | CCc1ccc2c(c1)C(C1=C[C@H](C)N(C)CC1)=Nc1ccccc1N2 | 167 | 4 | 0.86 |  |  |  |  |  |  | 600
21 | C[C@H]1C=C(C2=Nc3cc(Cl)ccc3Nc3ccc(Cl)cc32)CCN1C | 106 | 0.9 | 0.72 |  |  |  |  |  |  | 900
22 | Cc1ccc2c(c1)C(C1=C[C@H](C)N(C)CC1)=Nc1cc(Cl)ccc1N2 | 63 | 2.3 | 0.35 |  | 0.094 |  |  |  |  | 
23 | C[C@H]1C=C(C2=Nc3cc(Cl)ccc3Nc3ccc(C#N)cc32)CCN1C | 135 | 1.1 | 0.49 |  |  |  |  |  |  | 600
24 | C[C@H]1C=C(C2=Nc3cc(Cl)ccc3Nc3ccccc32)CCN1C | 479 | 51 | 1.3 |  |  |  |  |  |  | 
25 | Cc1ccc2c(c1)N=C(C1=C[C@H](C)N(C)CC1)c1cc(Cl)ccc1N2 | 98 | 0.48 | 0.38 |  |  |  |  |  |  | 1100
26 | C[C@@H]1C=C(C2=Nc3cc(Cl)ccc3Nc3ccccc32)CCN1C | > 1400 | 780 | 0.84 |  |  |  |  |  |  | 
